According to PubChem BioAssay AID248 (DTP/NCI, 2004):
Inconclusive results and toxic doses are left out. Cut-off read from the data, not from the text of the source: active = T/C of 150% or more; inactive = T/C below 125%.

Test system: L1210 leukemia ip in BDF1 mice, survival T/C
Test: NCI In Vivo Anticancer Drug Screen. Data for tumor model L1210 Leukemia (intraperitoneal) in B6D2F1 (BDF1) mice
Conditions: endpoint: mean survival time, higher = longer survival
Summary of the method: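 Antitumor effect is assessed in tumor-bearing animals. Survival in the compound arm is compared with a vehicle-dosed control arm and expressed as their quotient.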

[1] = dose: 100.0 mg/kg/injection, schedule: Q01DX001 (ip), vehicle: carboxymethylcellulose (CMC)
[2] = dose: 200.0 mg/kg/injection, schedule: Q01DX001 (ip), vehicle: carboxymethylcellulose (CMC)
[3] = dose: 400.0 mg/kg/injection, schedule: Q01DX001 (ip), vehicle: carboxymethylcellulose (CMC)
[4] = dose: 50.0 mg/kg/injection, schedule: Q01DX001 (ip), vehicle: saline
[5] = dose: 100.0 mg/kg/injection, schedule: Q01DX001 (ip), vehicle: saline

Measured: T/C

O=C(O)C1(O)c2ccccc2-c2ccc(Cl)cc21 (configuration not stated)
inactive: dose: 50.0 mg/kg/injection, schedule: Q01DX001 (ip), vehicle: carboxymethylcellulose (CMC) 103 % of control | [1] 105 % of control | [2] 114 % of control | [3] 103 % of control

CC(C)(CO)NCc1ccccc1F
inactive: dose: 75.0 mg/kg/injection, schedule: Q01DX001 (ip), vehicle: saline 103 % of control | dose: 150.0 mg/kg/injection, schedule: Q01DX001 (ip), vehicle: saline 104 % of control | dose: 300.0 mg/kg/injection, schedule: Q01DX001 (ip), vehicle: saline 98 % of control

CSc1ccccc1C=O
inactive: dose: 100.0 mg/kg/injection, schedule: Q01DX009 (ip), vehicle: Klucel (hydroxypropylcellulose) (HPC) 114 % of control | dose: 100.0 mg/kg/injection, schedule: Q04DX003 (ip), vehicle: Klucel (hydroxypropylcellulose) (HPC) 94 % of control | dose: 200.0 mg/kg/injection, schedule: Q01DX009 (ip), vehicle: Klucel (hydroxypropylcellulose) (HPC) 105 % of control | dose: 200.0 mg/kg/injection, schedule: Q04DX003 (ip), vehicle: Klucel (hydroxypropylcellulose) (HPC) 95 % of control | dose: 400.0 mg/kg/injection, schedule: Q01DX009 (ip), vehicle: Klucel (hydroxypropylcellulose) (HPC) 106 % of control | dose: 400.0 mg/kg/injection, schedule: Q04DX003 (ip), vehicle: Klucel (hydroxypropylcellulose) (HPC) 95 % of control

C/C=C/c1nc2c([nH]1)c(=O)n(C)c(=O)n2C
inactive: [4] 107 % of control | [5] 107 % of control | dose: 200.0 mg/kg/injection, schedule: Q01DX001 (ip), vehicle: saline 104 % of control | dose: 400.0 mg/kg/injection, schedule: Q01DX001 (ip), vehicle: saline 98 % of control

O=C(/C(=C\c1ccccc1)Oc1ccc(S[N+](=O)[O-])cc1)c1ccccc1
inactive: [1] 95 % of control | [2] 92 % of control | [3] 95 % of control

CN=C1C2CCC(C2)CC1(O)c1ccccc1 (configuration not stated)
inactive: [4] 102 % of control | [5] 102 % of control
